Reference: publication PMC8948939 (Pharmaceutics, 2022)
Values joined by “and” are separate entries in the source; they are usually repeats but may differ in a detail not shown here. Equal values may be shown once. Read-outs that look alike come from different tables or passages of the source.

Tests used:
[1] = biological target: T1, CYP2C19 (Homo sapiens, UniProt P33261); design: tissue Corning Inc; host or cells: pooled human liver microsomes (150 donors); details: ref Hohmann et al. 42; cited from earlier work
T1 sequence (P33261 whole entry): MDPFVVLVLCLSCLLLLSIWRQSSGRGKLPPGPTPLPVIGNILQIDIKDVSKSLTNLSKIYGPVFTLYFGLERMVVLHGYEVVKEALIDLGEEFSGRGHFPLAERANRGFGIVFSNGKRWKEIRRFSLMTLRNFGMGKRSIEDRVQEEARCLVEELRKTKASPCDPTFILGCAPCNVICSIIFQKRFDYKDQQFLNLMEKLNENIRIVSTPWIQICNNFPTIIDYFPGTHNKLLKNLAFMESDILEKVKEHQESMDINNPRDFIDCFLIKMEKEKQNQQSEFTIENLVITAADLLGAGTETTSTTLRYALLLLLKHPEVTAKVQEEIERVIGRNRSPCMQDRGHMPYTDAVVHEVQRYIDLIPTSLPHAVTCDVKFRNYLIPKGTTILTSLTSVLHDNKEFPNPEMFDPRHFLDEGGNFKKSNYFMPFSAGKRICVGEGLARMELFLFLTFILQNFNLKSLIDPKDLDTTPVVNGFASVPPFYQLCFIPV

[2] = biological target: T2, CYP3A4 (Homo sapiens, UniProt P08684); assay: Type of reversible inhibition and Ki on CYP3A4 (midazolam 1-hydroxylation) in HLM; format: in vitro ADME; design: tissue Corning Inc; host or cells: pooled human liver microsomes (150 donors); details: for Type of Reversible Inhibition / Ki: CYP3A4; for Type of Reversible Inhibition: best model fit by AIC; for Ki: midazolam 1-hydroxylation, HLM, read-out: Ki (95% CI)
T2 sequence (P08684 2-503 limits assumed): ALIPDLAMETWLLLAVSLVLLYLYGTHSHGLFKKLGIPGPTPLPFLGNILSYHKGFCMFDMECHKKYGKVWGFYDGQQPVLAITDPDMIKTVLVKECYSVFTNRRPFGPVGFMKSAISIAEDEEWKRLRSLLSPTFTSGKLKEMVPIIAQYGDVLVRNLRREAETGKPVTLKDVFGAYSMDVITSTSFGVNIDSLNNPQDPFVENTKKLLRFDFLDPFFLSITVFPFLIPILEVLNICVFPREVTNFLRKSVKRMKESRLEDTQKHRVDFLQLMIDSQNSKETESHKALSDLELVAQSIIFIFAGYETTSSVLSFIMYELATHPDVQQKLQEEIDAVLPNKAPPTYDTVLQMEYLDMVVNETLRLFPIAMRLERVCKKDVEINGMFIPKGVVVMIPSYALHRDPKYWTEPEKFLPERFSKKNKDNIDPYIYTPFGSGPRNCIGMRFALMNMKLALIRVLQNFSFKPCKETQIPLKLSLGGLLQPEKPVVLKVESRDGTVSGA
Experimental: (§1) Reaction velocities were investigated in function of the substrate ([S]) and inhibitor ([I]) concentration to determine KM, Vmax and Ki of the reaction. The obtained data were used to fit the three main models of reversible inhibition, i.e., competitive (Equation (10)), noncompetitive (Equation (11)) and uncompetitive (Equation (12)) using the “nls” function in R. The type of inhibition was determined according to the best model fit assessed with Akaike’s information criteria (AIC). […] (10) V=Vmax/1+KM/S1+I/Ki (11) V=Vmax/1+KM/S1+I/Ki (12) V=Vmax/1+KM/S+I/Ki […]
(§2) Supplementary Section S1. Marker reactions for CYP2C19, CYP2C9 and CYP3A4 […]
(§3) for CYP3A4 [1,2] were used to determine (i) intersystem extrapolation factors (ISEF), (ii) […]
(§4) (i) Experiments for the determination of Michaelis-Menten kinetics in HLM were performed at protein concentrations of 0.02, 0.04 and 0.05 mg/mL for the marker reactions of CYP2C19, CYP2C9 and CYP3A4 (n = 3 each), respectively. Two samples were taken from each incubation after 15 and 25 min for investigations on CYP2C19, after 5 and 10 min for CYP2C9 and after 7 and 12 min for CYP3A4, respectively. […]
(§5) were applied as substrate concentrations. […]
(§6) Each probe substrate was incubated in the presence of each inhibitor. […]
(§7) were performed at concentrations of 0.2, 0.08 and 0.05 mg/mL HLM for CYP2C19, CYP2C9 and CYP3A4, respectively. IC50 and IC50 shift assays were performed at substrate […]
(§8) Reaction times were identical to those described

[3] = biological target: T1, CYP2C19; assay: Type of reversible inhibition and Ki on CYP2C19 (S-mephenytoin 4-hydroxylation) in HLM; format: in vitro ADME; design: tissue Corning Inc; host or cells: pooled human liver microsomes (150 donors); details: for Type of Reversible Inhibition: CYP2C19, best model fit by AIC; for inhibitory effect on CYP2C19 relative to VRC (fold lower, from Ki): compared to VRC; for Ki: read-out: Ki (95% CI)
Experimental: as §1, §2, §3, §4, §5, §6, §7, §8

[4] = biological target: T3, CYP2C9 (Homo sapiens, UniProt P11712); design: tissue Corning Inc; host or cells: pooled human liver microsomes (150 donors); details: ref Giri et al. 84; cited from earlier work
T3 sequence (P11712 whole entry): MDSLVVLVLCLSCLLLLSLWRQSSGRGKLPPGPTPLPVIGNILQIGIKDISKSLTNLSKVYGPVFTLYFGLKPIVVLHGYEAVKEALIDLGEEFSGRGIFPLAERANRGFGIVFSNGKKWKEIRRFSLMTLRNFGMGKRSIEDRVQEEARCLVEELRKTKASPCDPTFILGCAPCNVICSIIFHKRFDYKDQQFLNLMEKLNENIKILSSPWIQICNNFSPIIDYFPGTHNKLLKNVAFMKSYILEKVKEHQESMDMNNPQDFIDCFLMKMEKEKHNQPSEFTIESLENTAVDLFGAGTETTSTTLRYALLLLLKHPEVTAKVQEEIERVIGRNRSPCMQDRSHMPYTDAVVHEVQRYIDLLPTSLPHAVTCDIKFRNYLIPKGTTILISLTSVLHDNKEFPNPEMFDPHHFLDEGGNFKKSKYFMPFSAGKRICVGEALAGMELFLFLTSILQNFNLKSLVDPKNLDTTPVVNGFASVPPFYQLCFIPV

[5] = test system: CYP3A4; details: cited from earlier work
[6] = test system: human liver microsomes (HLM); assay: Metabolic stability of voriconazole N-oxide and hydroxyvoriconazole in HLM; format: in vitro ADME; details: HLM 0.2 mg/mL; for depletion over time when incubated directly with HLM: 5-60 min, 0.137 and 1.10 µM; for % compared to a control incubation without HLM after 60 min: high concentration (1.10 µM), single replicates
Experimental: An incubation without HLM served as a control (n = 1).

[7] = biological target: T2, CYP3A4; assay: IC50 and IC50 shift on CYP3A4 marker reaction (midazolam 1-hydroxylation) in HLM; format: in vitro ADME; design: tissue Corning Inc; host or cells: pooled human liver microsomes (150 donors); details: for time dependence of inhibition: IC50 shift assay; for IC50 shift: human, human liver microsomes, pH 7.5, probe midazolam 1-hydroxylation (4.60 µM midazolam)
Experimental: (§9) Remaining activity (A, %) was calculated as the ratio of reaction velocities in the inhibited and non-inhibited incubations. IC50 and the steepness of the inhibition curve (H) were estimated by fitting the four-parameter inhibition model to the experimental data (Equation (9)). Maximum (Amax) and baseline activity (A0) were fixed to 100 and 0, respectively. […] (9) A,%=A0+Amax−A0/1+logCInhib/logIC50^H=100/1+logCInhib/logIC50^H […]
as §2, §3
Two samples were taken […]
from each incubation after 15 and 25 min for investigations on CYP2C19, after 5 and 10 min for CYP2C9 and after 7 and 12 min for CYP3A4, respectively. […]
CYP2C9 and CYP3A4, respectively. IC50 and IC50 shift assays were performed at substrate […]
as §8

[8] = biological target: T3, CYP2C9; assay: Type of reversible inhibition and Ki on CYP2C9 (diclofenac 4-hydroxylation) in HLM; format: in vitro ADME; design: tissue Corning Inc; host or cells: pooled human liver microsomes (150 donors); details: for Type of Reversible Inhibition: CYP2C9, best model fit by AIC; for Ki: read-out: Ki (95% CI)
Experimental: as §1, §2, §3, §4, §5, §6, §7, §8

[9] = biological target: T1, CYP2C19; assay: IC50 and IC50 shift on CYP2C19 marker reaction (S-mephenytoin 4-hydroxylation) in HLM; format: in vitro ADME; design: tissue Corning Inc; host or cells: pooled human liver microsomes (150 donors); details: for time dependence of inhibition: IC50 shift assay
Experimental: as §9, §2, §3, §6, §7, §8

[10] = biological target: T3, CYP2C9; assay: IC50 and IC50 shift on CYP2C9 marker reaction (diclofenac 4-hydroxylation) in HLM; format: in vitro ADME; design: tissue Corning Inc; host or cells: pooled human liver microsomes (150 donors); details: for time dependence of inhibition: IC50 shift assay; for IC50 shift / IC50 shift at 30 min: human, human liver microsomes; for IC50 shift: pH 7.5, probe diclofenac 4-hydroxylation (4.73 µM diclofenac); for IC50 shift at 30 min: pH 7.5, probe diclofenac (4-hydroxylation), 4.73 µM
Experimental: as §9
Supplementary Section S1. […]
Two samples were taken
from each incubation after 15 and 25 min for investigations on CYP2C19, after 5 and
10 min for CYP2C9 and after 7 and 12 min for CYP3A4, respectively. […]
CYP2C9 and CYP3A4, respectively. IC50 and IC50 shift assays were performed at substrate
as §8

[11] = cited from earlier work
[12] = test system: HLM, HIM and rhCYP; assay: Pre-investigations of metabolite formation from VRC in HLM, HIM and rhCYP; format: in vitro ADME, human
From the text: As an essential prerequisite, the linearity of metabolite formation with regard to reaction time and enzyme concentration, as well as the absence of substrate depletion (<10%), were investigated.

[13] = 30 min pre-incubation in the absence of NADPH, read-out: IC50 NADPH (−) (95% Confidence Interval)
[14] = 30 min pre-incubation in the presence of NADPH
[15] = 30 min pre-incubation in the presence of NADPH, read-out: IC50 NADPH (+) (95% Confidence Interval)
[16] = 30 min pre-incubation in the absence of NADPH
[17] = without pre-incubation, 4.60 µM midazolam, HLM, read-out: IC50 (95% Confidence Interval)
[18] = without pre-incubation, […] S-mephenytoin, HLM, NO and OH–VRC estimates exceed applied concentrations (max 34.2 µM), read-out: IC50 (95% Confidence Interval)
[19] = without pre-incubation, 4.73 µM diclofenac, HLM, read-out: IC50 (95% Confidence Interval)

| Type of Reversible Inhibition [2] | Ki [2] | Type of Reversible Inhibition [3] | inhibitory effect on CYP2C19 relative to VRC (fold lower, from Ki) [3] | Ki [3] | depletion over time when incubated directly with HLM [6] | % compared to a control incubation without HLM after 60 min [6] | IC50 [7, 13] | IC50 [7, 15] | time dependence of inhibition [7] | IC50 shift [7, 16] | IC50 shift [7, 14] | IC50 [7, 17] | Type of Reversible Inhibition [8] | Ki [8] | IC50 Shift NADPH (−) [9, 16] | IC50 [9, 13] | IC50 Shift NADPH (+) [9, 14] | IC50 [9, 15] | time dependence of inhibition [9] | SMILES | further results |
| --- | --- | --- | --- | --- | --- | --- | --- | --- | --- | --- | --- | --- | --- | --- | --- | --- | --- | --- | --- | --- | --- |
| noncompetitive | 5.24 µM | noncompetitive | 31 fold | 58.6 µM | no depletion | 96.9% and 109% | 6.96 µM | 2.91 µM | Time-independent inhibition | 0.644 | > 1.5 | 4.48 µM | competitive | 5.47 µM | 0.641 | > 34.2 µM | 0.900 | > 34.2 µM | Time-independent inhibition | C[C@@H](c1nc[n+]([O-])cc1F)[C@](O)(Cn1cncn1)c1ccc(F)cc1F [NO, voriconazole N-oxide] | IC50 [1]: 40.2 µM; inhibitory effect on CYP3A4 relative to VRC (fold, from Ki) ([2]; compared to VRC): 1.9 fold; IC50 [4]: 11.2 µM; IC50 ([5]; ref Giri et al. 84): 8.7 µM; IC50 ([5]; ref Hohmann et al. 42): 146 µM; IC50 Shift NADPH (+) [7, 14]: 1.54; inhibitory effect on CYP2C9 relative to VRC (fold, from Ki) ([8]; compared to VRC): 2.1 fold; IC50 [9, 18]: > 34.2 µM; IC50 [10, 13]: 10.1 µM; IC50 [10, 15]: 14.9 µM; time dependence of inhibition [10]: Time-independent inhibition; IC50 shift [10, 16]: 1.34; IC50 shift at 30 min [10, 14]: 0.899; IC50 [10, 19]: 13.4 µM |
| noncompetitive | 2.53 µM | competitive | 6.1 fold | 11.6 µM | no depletion | 94.7% | 0.579 µM | 1.57 µM | Time-independent inhibition | > 1.5 | 0.65 | 1.02 µM | competitive | 2.8 µM | 1.17 | > 34.2 µM | 1.24 | 33.6 µM | Time-independent inhibition | C[C@@H](c1ncnc(O)c1F)[C@](O)(Cn1cncn1)c1ccc(F)cc1F [OH–VRC, hydroxyvoriconazole] | plasma concentrations, fold lower than those of NO [11]: up to 30 fold; OH–VRC formation from VRC [12]: not observed; IC50 Shift NADPH (−) [7, 16]: 1.76; IC50 [9, 18]: > 34.2 µM; IC50 [10, 13]: 3.68 µM; IC50 [10, 15]: 3.64 µM; time dependence of inhibition [10]: Time-independent inhibition; IC50 shift [10, 16]: 0.997; IC50 shift at 30 min [10, 14]: 1.01; IC50 [10, 19]: 3.67 µM |
